Test results: ChEMBL document CHEMBL1136368, “Antiviral activity of cyclopentenyl nucleosides against orthopox viruses (Smallpox, monkeypox and cowpox)” (Bioorg Med Chem Lett, 2003)
In brackets after ≈: the same amount, converted by molar mass.

Assays:
Vero [1] = tested on: Vero
Vero [2] = tested on: Vero; remark: listed apart in the source
Vero [3] = tested on: Vero; remark: listed apart in the source
Vero [4] = tested on: Vero; remark: listed apart in the source
Vero [5] = tested on: Vero; remark: listed apart in the source
Vero [6] = tested on: Vero; remark: listed apart in the source
Vero [7] = tested on: Vero; remark: listed apart in the source
Vero [8] = tested on: Vero; remark: listed apart in the source
Vero [9] = tested on: Vero; remark: listed apart in the source
in vitro [10] = details: monkey, Vero 76 cells (ATCC CRL 1587)
in vitro [11] = details: rhesus monkey, LLC-MK2 cells (ATCC CRL 7)
in vitro [12] = details: rhesus monkey, LLC-MK2 cells (ATCC CRL 7); remark: listed apart in the source
in vitro [13] = details: rhesus monkey, LLC-MK2 cells (ATCC CRL 7); remark: listed apart in the source
in vitro [14] = details: monkey, Vero 76 cells (ATCC CRL 1587); remark: listed apart in the source
in vitro [15] = details: rhesus monkey, LLC-MK2 cells (ATCC CRL 7); remark: listed apart in the source
in vitro [16] = details: monkey, Vero 76 cells (ATCC CRL 1587); remark: listed apart in the source
in vitro [17] = details: rhesus monkey, LLC-MK2 cells (ATCC CRL 7); remark: listed apart in the source
in vitro [18] = details: monkey, Vero 76 cells (ATCC CRL 1587); remark: listed apart in the source
in vitro [19] = details: monkey, Vero 76 cells (ATCC CRL 1587); remark: listed apart in the source
Vero [20] = tested on: Vero; remark: listed apart in the source

SMILES | EC50 (Vero [1]) [mg/L] | EC50 (Vero [2]) [mg/L] | EC50 (Vero [3]) [mg/L] | EC50 (Vero [4]) [mg/L] | EC50 (Vero [5]) [mg/L] | IC50 (Vero [6]) [mg/L] | IC50 (Vero [7]) [mg/L] | IC50 (Vero [8]) [mg/L] | IC50 (Vero [9]) [mg/L] | selectivity ratio (in vitro [10]) | selectivity ratio (in vitro [11]) | selectivity ratio (in vitro [12]) | selectivity ratio (in vitro [13]) | selectivity ratio (in vitro [14]) | selectivity ratio (in vitro [15]) | selectivity ratio (in vitro [16]) | selectivity ratio (in vitro [17]) | selectivity ratio (in vitro [18]) | selectivity ratio (in vitro [19]) | IC50 (Vero [20]) [mg/L]
Nc1ncnc2c1ncn2[C@@H]1C=C(CO)[C@@H](O)[C@H]1O [NEOPLANOCIN A] | > 100 | 0.21 (≈ 0.798 µM) | 0.03 (≈ 0.114 µM) | 0.14 (≈ 0.532 µM) | > 100 | 20 (≈ 76 µM) | 57 (≈ 217 µM) | 50 (≈ 190 µM) | > 100 | 71 | 360 | 12 | 1 | < 0.2 | 161 | 271 | 230 | 1670 | 1 | 
OCC1=C[C@@H](n2cnc3c(O)ncnc32)[C@H](O)[C@@H]1O | > 100 | > 100 | > 100 | > 100 | > 100 | > 100 | > 100 | > 100 | > 100 |  |  |  |  |  |  |  |  |  |  | > 100
Nc1nc(=O)n([C@H]2C=C(CO)[C@H](O)[C@@H]2O)cc1F | 1.35 (≈ 5.25 µM) | 2.05 (≈ 7.97 µM) | 2.63 (≈ 10.2 µM) | 1.17 (≈ 4.55 µM) | 1.46 (≈ 5.68 µM) | > 100 | 100 (≈ 389 µM) | 39 (≈ 152 µM) | > 100 | 86 | > 196 | 189 | 162 | > 74 | > 164 | 49 | > 58 | 15 | > 69 | 100 (≈ 389 µM)
Nc1ccn([C@@H]2C=C(CO)[C@@H](O)[C@H]2O)c(=O)n1 | 0.05 (≈ 0.209 µM) | < 0.05 | < 0.05 | > 100 | 0.04 (≈ 0.167 µM) | 1 (≈ 4.18 µM) | 4 (≈ 16.7 µM) | > 100 | 40 (≈ 167 µM) | 0.3 | 100 | 300 | > 166 | > 20 | 210 | > 80 | 550 | > 2000 | 1000 | 30 (≈ 125 µM)
